How the values were obtained:
[1] = target: mouse TAAR1 (Mus musculus (Mouse), UniProt Q923Y8); assay: Radioligand binding assay on mouse TAAR1; details: mouse TAAR1, HEK-293 membranes; first value of the mouse/rat pair
Procedure: (§1) Construction of TAAR Expression Plasmids and Stably Transfected Cell Lines
(§2) For the construction of expression plasmids the coding sequences of human, rat and mouse TAAR 1 were amplified from genomic DNA essentially as described by Lindemann et al..
(§3) The Expand High Fidelity PCR System (Roche Diagnostics) was used with 1.5 mM Mg^2+ and purified PCR products were cloned into pCR2.1-TOPO cloning vector (Invitrogen) following the instructions of the manufacturer. PCR products were subcloned into the pIRESneo2 vector (BD Clontech, Palo Alto, Calif.), and expression vectors were sequence verified before introduction in cell lines.
(§4) HEK293 cells (ATCC # CRL-1573) were cultured essentially as described by Lindemann et al. (2005). For the generation of stably transfected cell lines HEK293 cells were transfected with the pIRESneo2 expression plasmids containing the TAAR coding sequences (described above) with Lipofectamine 2000 (Invitrogen) according to the instructions of the manufacturer, and 24 hrs post transfection the culture medium was supplemented with 1 mg/ml G418 (Sigma, Buchs, Switzerland). After a culture period of about 10 d clones were isolated, expanded and tested for responsiveness to trace amines (all compounds purchased from Sigma) with the cAMP Biotrak Enzyme immunoassay (EIA) System (Amersham) following the non-acetylation EIA procedure provided by the manufacturer.
Radioligand Binding Assay on Mouse TAAR1
(§5) Membrane Preparation and Radioligand Binding.
(§6) HEK-293 cells stably expressing mouse TAAR1 were maintained at 37° C. and 5% CO2 in DMEM high glucose medium, containing fetal calf serum (10%, heat inactivated for 30 min at 56° C.), penicillin/streptomycin (1%), and 375 μg/ml geneticin (Gibco). Cells were released from culture flasks using trypsin/EDTA, harvested, washed twice with ice-cold PBS (without Ca^2+ and Mg^2+), pelleted at 1,000 rpm for 5 min at 4° C., frozen and stored at −80° C. Frozen pellets were suspended in 20 ml HEPES-NaOH (20 mM, pH 7.4) containing 10 mM EDTA and homogenized with a Polytron (PT 6000, Kinematica) at 14,000 rpm for 20 s. The homogenate was centrifuged at 48,000×g for 30 min at 4° C. Subsequently, the supernatant was removed and discarded, and the pellet resuspended in 20 ml HEPES-NaOH (20 mM, pH 7.4) containing 0.1 mM EDTA using the Polytron (20 s at 14,000 rpm). This procedure was repeated and the final pellet resuspended in HEPES-NaOH containing 0.1 mM EDTA and homogenized using the Polytron. Typically, aliquots of 2 ml membrane portions were stored at −80° C. With each new membrane batch the dissociation constant (Kd) was determined via a saturation curve. […] Nonspecific binding was defined as the amount of ^3[H]-(S)-4-[(ethyl-phenyl-amino)-methyl]-4,5-dihydro-oxazol-2-ylamine bound in the presence of 10 μM unlabeled ligand. All compounds were tested at a broad range of concentrations (10 pM to 10 μM) in duplicates. […] The 96 deep well plates were incubated for 1 hr at 4° C. Incubations were terminated by rapid filtration through Unifilter-96 plates (Packard Instrument Company) and glass filters GF/C (Perkin Elmer) presoaked for 1 hr in polyethylenimine (0.3%) and washed 3 times with 1 ml of cold binding buffer. After addition of 45 μl of Microscint 40 (PerkinElmer) the Unifilter-96 plate was sealed and after 1 hr the radioactivity counted using a TopCount Microplate Scintillation Counter (Packard Instrument Company).

[2] = target: rat TAAR1 (Rattus norvegicus (Rat), UniProt Q923Y9); assay: Radioligand binding assay on rat TAAR1; details: rat TAAR1, HEK-293 membranes; second value of the mouse/rat pair
Procedure: as §1, §2, §3, §4
Radioligand Binding Assay on Rat TAAR1
as §5
as §6, with “rat” for “mouse”, “[H]-(S)-4-[(ethyl-phenyl-amino)-methyl]-4,5-dihydro-oxazol-2-ylamine” for “^3[H]-(S)-4-[(ethyl-phenyl-amino)-methyl]-4,5-dihydro-oxazol-2-ylamine”, “[…]” for “pM”

Chain of rat TAAR1 (Q923Y9 whole entry): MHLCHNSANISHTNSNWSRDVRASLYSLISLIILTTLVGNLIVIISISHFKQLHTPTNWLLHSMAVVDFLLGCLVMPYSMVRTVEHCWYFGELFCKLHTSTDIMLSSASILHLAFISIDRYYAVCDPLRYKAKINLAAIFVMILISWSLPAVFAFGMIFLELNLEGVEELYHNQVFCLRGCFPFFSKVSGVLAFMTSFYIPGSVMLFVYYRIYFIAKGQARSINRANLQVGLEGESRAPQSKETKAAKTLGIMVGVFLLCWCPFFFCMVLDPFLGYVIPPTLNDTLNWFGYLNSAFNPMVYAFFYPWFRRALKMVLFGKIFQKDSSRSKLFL
Chain of mouse TAAR1 (Q923Y8 whole entry): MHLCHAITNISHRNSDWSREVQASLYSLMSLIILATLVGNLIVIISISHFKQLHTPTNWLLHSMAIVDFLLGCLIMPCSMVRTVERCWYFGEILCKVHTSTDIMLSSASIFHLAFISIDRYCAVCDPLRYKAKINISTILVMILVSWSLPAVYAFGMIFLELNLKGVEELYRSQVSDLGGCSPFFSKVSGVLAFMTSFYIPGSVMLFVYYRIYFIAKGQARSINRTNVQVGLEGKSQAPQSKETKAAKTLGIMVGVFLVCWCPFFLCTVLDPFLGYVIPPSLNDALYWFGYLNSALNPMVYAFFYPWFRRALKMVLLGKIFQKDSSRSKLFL

Structure (SMILES) | Ki [1] [µM] | Ki [2] [µM]
Fc1c(Nc2ncc(C3CC3)cn2)ccc2c1CCN1CCNC[C@@H]21 [Example 33, (11bR)-N-(5-cyclopropylpyrimidin-2-yl)-8-fluoro-2,3,4,6,7,11b-hexahydro-1H-pyrazino[2,1-a]isoquinolin-9-amine] | 0.0677 | 0.105
Cc1cc(Nc2ccc3c(c2)CCN2CCNC[C@@H]32)nc(C)n1 [Example 23, (11bR)-N-(2,6-dimethylpyrimidin-4-yl)-2,3,4,6,7,11b-hexahydro-1H-pyrazino[2,1-a]isoquinolin-9-amine] | 0.165 | 0.457
CN(C)c1cc(Nc2ccc3c(c2)CCN2CCNC[C@@H]32)nc(C(F)(F)F)n1 [Example 19, N4-[(11bR)-2,3,4,6,7,11b-hexahydro-1H-pyrazino[2,1-a]isoquinolin-9-yl]-N6,N6-dimethyl-2-(trifluoromethyl)pyrimidine-4,6-diamine] | 0.0231 | 0.0076
O=C(Nc1ccc2c(c1)CCN1CCNC[C@@H]21)c1ccc(Cl)cc1 [Example 3, N-[(11bR)-2,3,4,6,7,11b-hexahydro-1H-pyrazino[2,1-a]isoquinolin-9-yl]-4-chloro-benzamide] | 0.0096 | 0.0562
FC(F)(F)c1nccc(Nc2ccc3c(c2)CCN2CCNC[C@H]32)n1 [Example 11, (11bS)-N-[2-(trifluoromethyl)pyrimidin-4-yl]-2,3,4,6,7,11b-hexahydro-1H-pyrazino[2,1-a]isoquinolin-9-amine] | 1.18 | 0.904
O=C(Nc1ccc2c(c1)CCN1CCNC[C@@H]21)c1ccnc(C(F)(F)F)c1 [Example 1, N-[(11bR)-2,3,4,6,7,11b-hexahydro-1H-pyrazino[2,1-a]isoquinolin-9-yl]-2-(trifluoromethyl)pyridine-4-carboxamide] | 0.121 | 0.199
COc1ccc(NC(=O)Nc2ccc3c(c2)CCN2CCNC[C@@H]32)cc1 [Example 36, (R)-1-(2,3,4,6,7,11b-hexahydro-1H-pyrazino[2,1-a]isoquinolin-9-yl)-3-(4-methoxyphenyl)urea] | 0.0101 | 0.023
FC(F)(F)c1nc(Cl)cc(Nc2ccc3c(c2)CCN2CCNC[C@@H]32)n1 [Example 21, (11bR)-N-[6-chloro-2-(trifluoromethyl)pyrimidin-4-yl]-2,3,4,6,7,11b-hexahydro-1H-pyrazino[2,1-a]isoquinolin-9-amine] | 0.0264 | 0.0134
CCc1n[nH]c(C(=O)Nc2ccc3c(c2)CCN2CCNC[C@@H]32)c1C [Example 41, (R)-3-ethyl-N-(2,3,4,6,7,11b-hexahydro-1H-pyrazino[2,1-a]isoquinolin-9-yl)-4-methyl-1H-pyrazole-5-carboxamide] | 0.145 | 0.288
O=C(Nc1ccc2c(c1)CCN1CCNC[C@H]21)c1ccnc(C(F)(F)F)c1 [Example 9, N-[(11bS)-2,3,4,6,7,11b-hexahydro-1H-pyrazino[2,1-a]isoquinolin-9-yl]-2-(trifluoromethyl)pyridine-4-carboxamide] | 0.0144 | 0.0142
Cc1ccc2c(c1)CCN1CCNC[C@@H]21 [Example 28, (11bR)-9-methyl-2,3,4,6,7,11b-hexahydro-1H-pyrazino[2,1-a]isoquinoline] | 0.29 | 0.421
O=C(Nc1ccc(Cl)cc1)c1ccc2c(c1)CCN1CCNC[C@@H]21 [Example 44, (11bR)-N-(4-chlorophenyl)-2,3,4,6,7,11b-hexahydro-1H-pyrazino[2,1-a]isoquinoline-9-carboxamide] | 0.0161 | 0.274
O=C(NCc1cccc(C(F)(F)F)c1)c1ccc2c(c1)CCN1CCNC[C@@H]21 [Example 43, (11bR)-N-[[3-(trifluoromethyl)phenyl]methyl]-2,3,4,6,7,11b-hexahydro-1H-pyrazino[2,1-a]isoquinoline-9-carboxamide] | 0.0301 | 0.137

Reference: patent publication US9828374B2, “Substituted pyrazino[2,2-a]isoquinoline derivatives” (Hoffmann-La Roche Inc., priority 2014, dated 2017)
